Assay results published in patent US5530157A, “Anti-inflammatory benzoic acid derivatives” (Scios Nova Inc., priority 1995, dated 1996).
Like-named read-outs stand apart in the source and are kept apart here.

What was measured:
neutrophils [1] = test: Elastase release from neutrophils, PAF; format: cell-based; conditions: Homo sapiens, Neutrophil; PAF 20 nM, cytochalasin b; read-out: IC50 to inhibit elastase release, PAF/ER
Source text: (§1) Several in vitro assays were employed to determine the ability of compounds of the invention to function as anti-inflammatory agents. One group of assays measured the ability of the compounds to inhibit adherence of polymorphonuclear neutrophils to serum coated wells (in the presence of either TNF-α or PAF) or to human umbilical vein endothelial cells (in the presence of INF-γ). Another group of assays measured the ability of the compounds to inhibit the release of elastase or superoxide from activated neutrophils. These assays were performed in the following manner.
(§2) Elastase release. Neutrophils (5×10^6 /ml in HBSS) were preincubated for 5 min at 37° C. with cytochalasin b (5 μg/ml). Experiments were performed in microtubes (96 per rack) to which were added the cell suspension, test compound (50 nM-500 μM), and one of several activators (fMLP, 200 nM, C5a, 24 nM; PAF, 20nM). After incubation (30 min, 37° C.) the tubes were centrifuged (1 min, 1500 rpm) and the supernatants assayed for elastase activity according to the following protocol:
(§3) Specifically, 10 μl of purified human neutrophil elastase standard or of sample was added to 70 μl or 0.1M Tris pH 7.5, 0.5% Brij detergent and 10 μl or 5 mM elastase substrate (methoxysuccinyl-alanyl-alanyl-prolyl-valyl paranitroanilide) in a 96 well microliter plate. Plates were indubated for 60 min at 37° C. and absorbance was read at 410 nm on a microplate reader. Elastase activity was quantitated relative to standards.

[2] = tested on: neutrophil accumulation in the cutaneous Reverse Passive Arthus reaction; test: Neutrophil accumulation in the cutaneous Reverse Passive Arthus reaction in rats; format: in vivo, Male Sprague Dawley rats; conditions: rat, i.p.; for ED50: Neutrophil, ip, 4 h, Reverse Passive Arthus, read-out: ID50 (the source's name); for Reverse Passive Arthus % Inhibition: 1.4 mg/kg, n = 4
Method: (§4) Two in vivo models of inflammation were used to assess the anti-inflammatory activity of compounds of the invention. One model measures neutrophil accumulation in thioglycollate-induced peritonitis in mice. The other measures neutrophil accumulation in the cutaneous Reverse Passive Arthus reaction in rats. These assays were carried out as follows.
Male Sprague Dawley rats were treated with test compounds by intraperitoneal injection of 1.4 mg/kg in 1% Tween, pH 9.0 vehicle. After 1 hr, animals were lightly anesthetized with 2% isoflurane, v/v, injected by intravenous route with 1 ml of 5 mg/ml human serum albumin, immediately follwed by intracutaneous administration of 75 μl of a solution of 4 mg/ml of goat anti-human serum albumin. Animals were anesthetized 4 hrs after antigen-antibody treatment. Punch biopsies of the dorsal injection sites were performed with one biopsy weighed for wet/dry weight ratio determination. The remaining two skin biopsies were used for measuring myeloperoxidase content and were minced, weighed and homogenized for 30 sec in 20 mM phosphate buffer (pH 7.4). After centrifugation (20 min, 6000×g, 4° C.) the supernatant was decanted and the pellet resuspended in 50 mM phosphate buffer (pH 6.0) containing 0.5% hexadecyltrimethylammonium bromide. After three freeze/thaw cycles, the pellet was centrifuged (15 min, 20000×g, 4° C.) and 100 μl aliquots were added to 2.9 ml of assay buffer (50 mM phosphate buffer, 0.167 mg/ml o-dianiside, 0.05% H2 O2, pH 6.0). Absorbance at 460 nm was measured at 15 min. Results shown in Table IV were calculated as absorbance units/g dry weight.

[3] = tested on: polymorphonuclear neutrophils; test: Adherence of PMN to serum coated wells, PAF; format: cell-based; conditions: Homo sapiens, Polymorphonuclear neutrophil, 10 min, PAF 1 μM, read-out: IC50 to inhibit adhesion, PAF serum
Source text: as §1
(§5) Isolation of PMN: Blood was drawn into syringes containing heparin (1 U/mL), from human volunteers (free of any medication for at least 48 hrs). 30 mL of blood was layered over a gradient of 10 mL 1.077 g/mL Histpaque (Sigma, St. Louis, Mo.), and centrifuged at room temperature, 400×g for 20 min. All subsequent manipulations were carried out at room temperature, with endotoxin free reagents, and using polypropylene pipettes and tubes, to prevent activation of the PMN. The pinkish PMN layer immediately above the RBC was collected and washed 2× with Hank's buffered salt solution with calcium and magnesium, 0.2% glucose, and 10 mM HEPES, pH 7.2 (HBSS++) by centrifugation at 400×g for 10 min. Pellets were suspended in 8 mL 0.9% NaCl, and RBC lysed by the addition of 24 mL water for 40 sec, followed by the addition of 8 mL of 3.6% NaCl. After centrifugation at 200×g for 8 min, RBC ghosts were aspirated from the top of the PMN pellet, and cells washed with HBSS++. PMN adherence to protein substrates: 96 well tissue culture plates were coated with 10% pooled human serum (North American Biological,;, Miami, Fla.) in phosphate buffered saline (PBS) for 1 hr at 37° C., followed by washing 3× with PBS. Test compounds were prepared in DMSO as 100× stocks. PMN (4×10^6 /mL) were preincubated with test compounds for 10 min at 37° C. in serum-coated wells. Tumor necrosis factor (TNF-α) was added to 3 nM or platelet aggregation facor (PAF) to 1 μM, and adherence was carried out for 20 or 10 min, respectively. Nonadherent cells were aspirated, and wells washed two times with warm PBS with calcium and magnesium, with blotting of the inverted plate following each aspiration. Adherent PMN were quantitated using a BCA protein assay (Pierce, Rockford, Ill.).

[4] = tested on: human umbilical vein endothelial cells; test: INF-γ HUVEC assay: adherence of PMN to human umbilical vein endothelial cells; format: cell-based; conditions: HUVECs with INF-γ 1 unit/mL 20 hrs, PMN activated with 50 ng/mL TNF, read-out: IC50 to inhibit adhesion, IFN-γ HUVECS
Source text: as §1, §5
INF-γHUVEC Assay. Primary human umbilical vein endothelial cells (HUVECs) from Clonetics Corp. (San Diego, Calif.) were seeded at 20,000 cells per wall in a 96 well tissue culture plate that was coated with fibronectin, for 45 min and then twice rinsed with phosphate buffered saline. To the culture media (M199, 80%; FBS, 20%; […] endothelial cell growth factor (Maciag et all, Proc. Natl. Acad. Sci. USA (1979) 76(11):5674-5678), 0.1 mg/mL heparin; 5% CO2; 37° C.) was added INF-γ (R&D Systems) at 1 unit/mL for 20 hrs. Isolated PMNs were loaded with the fluorescent dye BCECF AM (Molecular Probes) by incubating 1×10^7 cells/mL in HBSS with 4 μM dye for 30 min at 37° C. The PMNs were incubated with test compound for 10 min at 37° C., then activated with 50 ng/mL TNF and immediately added to the HUVECs which had been rinsed twice with HBSS+1% human serum. The co-culture plate was incubated at 37° C. for 20 min followed by gentle washing (twice) with HBSS+1% human serum. The extent of adherence was assessed by measuring the amount of fluorescence (485-535 nm filter) in each well with a fluorescence plate reader (Idexx).

[5] = tested on: polymorphonuclear neutrophils; test: Adherence of PMN to serum coated wells, TNF-α; format: cell-based; conditions: Homo sapiens, Polymorphonuclear neutrophil, 20 min, TNF-α 3 nM, read-out: IC50 to inhibit adhesion, TNF-α serum
Source text: as §1, §5

[6] = tested on: neutrophil accumulation in thioglycollate-induced peritonitis; test: Neutrophil accumulation in thioglycollate-induced peritonitis in the mouse; format: in vivo, Male CF-1 mice; conditions: for ED50: iv
Method: as §4
Male CF-1 mice were pretreated with individual test compound (4-6 mice per compound) 10 min prior to thioglycollate treatment. Test compounds at various doses, solubilized in 1% Tween, pH 9.0, were injected into the tail vein. Thioglycollate (4% Brewer's thioglycollate broth in water) was administered intraperitoneally in 1 ml volume. Peritoneal lavages, performed 4 hrs following thioglycollate treatment, involved injecting 5 ml of Dulbecco's phosphate buffered saline with 0.1% bovine serum albumin and 10 units/ml heparin into the peritoneal cavity, massaging the peritoneum, and then removing fluid through peritoneal aspiration. The lavage fluid was centrifuged, red blood cells lysed with water, cells were resuspended in Hank's balanced salt solution, and leukocytes were counted with a modified Neubauer hemacytometer. Leukocyte preparations (cytospin slides) were differentially stained with a Giemsa stain. Neutrophil accumulation expressed as a percent of control was calculated after the subtraction of baseline neutrophils from all treatement groups (see Table III).

neutrophils [7] = test: Elastase release from neutrophils, fMLP; format: cell-based; conditions: Homo sapiens, Neutrophil; fMLP 200 nM, cytochalasin b; read-out: IC50 to inhibit elastase release, fMLP/ER
Source text: as §1, §2, §3

neutrophils [8] = test: Superoxide production by PMN, fMLP; format: cell-based; conditions: Homo sapiens, Neutrophil; fMLP 300 nM, TNF preincubation; read-out: IC50 to inhibit superoxide production, fMLP/O2
Source text: as §1
(§6) Superoxide production. Superoxide production by PMN was measured as the superoxide dismutase (SOD)-inhibitable reduction of ferricytochrome c. […] Therefore, subsequent experiments were performed in the presence of cytochrome c only. In all cases, experiments were carried out in 96 well plates. Before the addition of cells, plates were coated by incubating each well with 200 μl of 10% human serum for 1 h in 37° C. Plates were then washed several times with PBS containing 10 mM CaCl2 and MgCl2. Neutrophils, resuspended in Hank's balanced salt solution (HBSS) to a final concentration of 4×10^6 cells/ml, were preincubated with TNF (10 ng/ml) for 10 min at 37° C. in the presence of cytochrome c (75 μm). Experiments were then performed with 100 μl of this cell suspension added to each well, followed by the addition of 10 μl of an aqueous dilution of test compound (50 nm-[…]). Immediately after the addition of test compound, a 10 μl aliquot of activators (fMLP, 300 nM; PAF, 20 nM; C5a, 5 μg/ml) was added to each well. Plates were immediately transferred to a preheated Thermomax kinetic microplate reader and the change in absorbance at […] was recorded over a 3 min period.

neutrophils [9] = test: Superoxide production by PMN, PAF; format: cell-based; conditions: Homo sapiens, Neutrophil; PAF 20 nM, TNF preincubation; read-out: IC50 to inhibit superoxide production, PAF/O2
Source text: as §1, §6

[10] = Neutrophil, mouse, i.v., thioglycollate-induced peritonitis, 4 hrs, read-out: ED50

SMILES | IC50 (neutrophils [1]) [µM] | IC50 [3] [µM] | IC50 [4] [µM] | IC50 [5] [µM] | IC50 (neutrophils [7]) [µM] | IC50 (neutrophils [8]) [µM] | IC50 (neutrophils [9]) [µM] | ED50 [2] [mg/kg] | Reverse Passive Arthus % Inhibition [2] [%] | ED50 [6, 10] [mg/kg] | % Inhibition of neutrophil accumulation ([6]; mouse, i.v., 3 mg/kg, 4 hrs) [%] | % Inhibition of neutrophil accumulation ([6]; mouse, i.v., 10 mg/kg, 4 hrs) [%] | % Inhibition of neutrophil accumulation ([6]; mouse, i.v., 30 mg/kg, 4 hrs) [%] | % Inhibition of neutrophil accumulation ([6]; mouse, i.v., 60 mg/kg, 4 hrs) [%] | ED50 ([6]; 4 h) [mg/kg] | % Inhibition of neutrophil accumulation ([6]; mouse, i.v., 0.3 mg/kg, 4 hrs) [%] | % Inhibition of neutrophil accumulation ([6]; mouse, i.v., 1 mg/kg, 4 hrs) [%]
O=C(O)c1ccc(/C=C/c2ccccc2-c2ccc3ccccc3c2)cc1 [NPC 18812, 4-{2-[2-(2-naphthyl)phenyl]-(E)-ethenyl}benzoic acid] | 7.6 | 1.17 | 14.5 | 3.6 | – | – | – | 0.5 | 29 | 7 | 12 | 50 | 71 | 94 | – | – | –
O=C(O)c1ccc(/C=C/c2ccccc2-c2cc3ccccc3o2)cc1 [NPC 18915, 4-{2-[2-(2-benzofuranyl)phenyl]-(E)-ethenyl} benzoic acid] | – | 0.64 | – | – | – | – | – | – | – | – | – | – | – | – | – | – | –
O=C(O)c1ccc(/C=C/c2ccccc2-c2ccc(Cl)c(Cl)c2)cc1 [NPC 18818, 4-{2-[2-(3,4-dichlorophenyl)phenyl]-(E)-ethenyl] benzoic acid] | 0.81 | 0.41 | 30 | 1.8 | 1.2 | 0.15 | 0.3 | – | 8 | < 30 | 35 | 34 | 52 | – | – | – | –

Now from value to molecule, other results behind:

IC50 (neutrophils [1]) [µM] | IC50 [3] [µM] | IC50 [4] [µM] | IC50 [5] [µM] | IC50 (neutrophils [7]) [µM] | IC50 (neutrophils [8]) [µM] | IC50 (neutrophils [9]) [µM] | SMILES | ED50 [2] [mg/kg] | Reverse Passive Arthus % Inhibition [2] [%] | ED50 [6, 10] [mg/kg] | % Inhibition of neutrophil accumulation ([6]; mouse, i.v., 3 mg/kg, 4 hrs) [%] | % Inhibition of neutrophil accumulation ([6]; mouse, i.v., 10 mg/kg, 4 hrs) [%] | % Inhibition of neutrophil accumulation ([6]; mouse, i.v., 30 mg/kg, 4 hrs) [%] | % Inhibition of neutrophil accumulation ([6]; mouse, i.v., 60 mg/kg, 4 hrs) [%] | ED50 ([6]; 4 h) [mg/kg] | % Inhibition of neutrophil accumulation ([6]; mouse, i.v., 0.3 mg/kg, 4 hrs) [%] | % Inhibition of neutrophil accumulation ([6]; mouse, i.v., 1 mg/kg, 4 hrs) [%]
3.23 | 2.4 | 25.7 | 2.9 | 6.25 | 0.34 | 3 | O=C(O)c1ccc(/C=C/c2ccccc2-c2ccccc2)cc1 [NPC 18730, 4-[2-(biphenyl)-E-ethenyl]benzoic acid] | – | 40 | – | 67 | 37 | 48 | – | 0.8 | 16 | 20
0.6 | 0.86 | 52.4 | 6.9 | 7.5 | 0.15 | 0.52 | O=C(O)c1ccc(C=Cc2ccccc2Oc2ccccc2)cc1 [NPC 18801, 2'-phenoxy-4-stilbenecarboxylic acid] | – | 3 | < 10 | 36 | 65 | 65 | – | – | – | –
19.9 | 6.5 | 28 | 6.4 | 8.7 | – | – | O=C(O)c1ccc(CCc2ccccc2-c2ccccc2)cc1 [NPC 18731, 4-[2-(biphenyl)ethyl]benzoic acid] | 0.1 | 40 | 4 | 22 | 44 | 59 | 59 | – | – | –
